Assays:
AtIPK2α = molecular target: T1, AtIPK2α (Arabidopsis thaliana, UniProt Q9LY23); assay: isothermal titration calorimetry; format: binding
T1 construct: gene IPK2a; full-length CDS in pET28b, N-terminal His8-MBP-TEV, E. coli BL21 (RIL); tag removed by TEV for ITC, His8-MBP fusion for kinase assays
T1 sequence (Q9LY23 1-286): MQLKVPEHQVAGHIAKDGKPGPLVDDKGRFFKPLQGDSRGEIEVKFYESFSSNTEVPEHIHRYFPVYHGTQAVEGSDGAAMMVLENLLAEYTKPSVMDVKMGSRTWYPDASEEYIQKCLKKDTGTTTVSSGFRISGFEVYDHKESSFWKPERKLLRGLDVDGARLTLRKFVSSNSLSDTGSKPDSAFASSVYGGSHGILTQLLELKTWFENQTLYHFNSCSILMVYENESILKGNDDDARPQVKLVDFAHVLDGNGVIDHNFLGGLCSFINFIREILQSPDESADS

AtIPK2β [1] = molecular target: T2, AtIPK2β (Arabidopsis thaliana, UniProt Q9FLT2); assay: isothermal titration calorimetry; format: binding
T2 construct: gene IPK2b; full-length CDS in pET28b, N-terminal His8-MBP-TEV, E. coli BL21 (RIL); tag removed by TEV for ITC, His8-MBP fusion for kinase assays
T2 sequence (Q9FLT2 1-300): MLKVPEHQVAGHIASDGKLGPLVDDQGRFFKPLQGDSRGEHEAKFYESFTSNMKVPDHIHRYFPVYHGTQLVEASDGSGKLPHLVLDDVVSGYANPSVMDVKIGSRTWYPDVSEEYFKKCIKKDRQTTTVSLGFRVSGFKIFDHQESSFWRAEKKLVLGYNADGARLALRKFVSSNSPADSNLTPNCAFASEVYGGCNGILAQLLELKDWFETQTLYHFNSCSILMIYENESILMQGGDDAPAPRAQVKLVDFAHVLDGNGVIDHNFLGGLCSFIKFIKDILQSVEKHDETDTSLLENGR

MpIPMK [2] = molecular target: T3, MpIPMK (Marchantia polymorpha, UniProt A0A2R6WAL0); assay: in vitro kinase assay, PAGE and CE-MS of products; format: biochemical; details: 12.5 mM ATP, 10 nmol InsP6, 5 mM MgCl2, 20 mM HEPES pH 7.5, 1 mM DTT, 37 °C, 12 h
T3 construct: gene MARPO_0118s0021; full-length CDS in pET28b, N-terminal His8-MBP fusion, E. coli, Ni-NTA purified in PBS; tag kept

AtHSFA1b [3] = molecular target: T4, AtHSFA1b (Arabidopsis thaliana, UniProt O81821 1-481); assay: EMSA; 25-200 nM protein, 250 nM probe; EMSA: 250 nM FAM probe, 15 min on ice (30 min pre-incubation with partner or InsP), 6% native PAGE; binding buffer not stated (proteins purified in PBS pH 7.4); details: protein: recombinant; tags: N-terminal His8-MBP; chain copies: 3; label: 5' FAM on strand 1; 5' overhang 4 nt at both ends, 26 bp duplex
MpIPMK [4] = molecular target: T5, MpIPMK (Marchantia polymorpha (Tak-1), UniProt A0A2R6WAL0 1-319); assay: EMSA; 50-200 nM protein, 250 nM probe; EMSA: 250 nM FAM probe, 15 min on ice (30 min pre-incubation with partner or InsP), 6% native PAGE; binding buffer not stated (proteins purified in PBS pH 7.4); details: protein: recombinant; tags: N-terminal His8-MBP; label: 5' FAM on strand 1; 5' overhang 4 nt at both ends, 26 bp duplex
T5 sequence: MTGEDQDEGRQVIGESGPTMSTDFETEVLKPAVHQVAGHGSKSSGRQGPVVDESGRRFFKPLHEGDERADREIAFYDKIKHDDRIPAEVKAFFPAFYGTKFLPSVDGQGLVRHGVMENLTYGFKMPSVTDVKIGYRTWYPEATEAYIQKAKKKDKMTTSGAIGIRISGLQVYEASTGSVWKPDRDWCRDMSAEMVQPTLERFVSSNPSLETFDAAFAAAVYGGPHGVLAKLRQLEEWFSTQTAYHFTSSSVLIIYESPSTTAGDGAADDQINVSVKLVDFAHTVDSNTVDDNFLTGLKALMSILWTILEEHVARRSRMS

AtIPK2β [5] = molecular target: T6, AtIPK2β (Arabidopsis thaliana (Col-0), UniProt Q9FLT2 1-300); assay: as above; details: protein: recombinant; tags: N-terminal His8-MBP-TEV; label: 5' FAM on strand 1; 5' overhang 4 nt at both ends, 26 bp duplex
T6 sequence: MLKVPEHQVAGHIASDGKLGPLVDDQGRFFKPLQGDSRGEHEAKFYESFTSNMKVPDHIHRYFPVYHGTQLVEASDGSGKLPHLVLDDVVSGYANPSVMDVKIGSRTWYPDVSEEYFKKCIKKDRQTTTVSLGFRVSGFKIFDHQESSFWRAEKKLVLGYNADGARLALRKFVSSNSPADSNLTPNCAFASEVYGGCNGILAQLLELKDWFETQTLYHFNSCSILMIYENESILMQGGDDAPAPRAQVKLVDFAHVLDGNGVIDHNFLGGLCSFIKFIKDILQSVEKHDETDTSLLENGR

AtHSFA1b [6] = molecular target: T4, AtHSFA1b; assay: as above; details: protein: recombinant; tags: N-terminal His8-MBP; chain copies: 3; label: 5' FAM on strand 1; 5' overhang 4 nt at both ends, 18 bp duplex

T4 sequence (O81821 whole entry): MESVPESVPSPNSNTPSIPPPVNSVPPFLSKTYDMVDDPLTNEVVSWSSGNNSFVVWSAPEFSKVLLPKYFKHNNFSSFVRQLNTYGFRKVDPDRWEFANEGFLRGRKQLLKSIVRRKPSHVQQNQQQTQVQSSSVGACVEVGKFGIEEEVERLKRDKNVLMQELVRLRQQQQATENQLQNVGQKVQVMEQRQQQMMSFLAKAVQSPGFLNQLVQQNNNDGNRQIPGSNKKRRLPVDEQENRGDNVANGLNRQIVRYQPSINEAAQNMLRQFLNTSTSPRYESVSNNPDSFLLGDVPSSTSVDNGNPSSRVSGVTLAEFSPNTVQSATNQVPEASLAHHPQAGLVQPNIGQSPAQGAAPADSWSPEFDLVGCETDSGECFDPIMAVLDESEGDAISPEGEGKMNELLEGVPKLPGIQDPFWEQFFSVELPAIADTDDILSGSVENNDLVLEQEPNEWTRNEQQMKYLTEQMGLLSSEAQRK

Molecule: O=P(O)(O)O[C@@H]1[C@H](O)[C@H](O)[C@@H](OP(=O)(O)O)[C@H](OP(=O)(O)O)[C@H]1O [Ins(1,4,5)P3]
- Kd (AtIPK2α): ~7 µM
- Kd (AtIPK2β [1]): ~6 µM

Molecule: O=P(O)(O)O[C@H]1[C@H](OP(=O)(O)O)[C@@H](OP(=O)(O)O)[C@H](OP(=O)(O)O)[C@@H](OP(=O)(O)O)[C@H]1OP(=O)(O)O [InsP6]
- Kd (AtIPK2α): ~2 µM
- kinase activity (MpIPMK [2]): demonstrating that MpIPMK phosphorylates InsP6 in vitro
- Kd (AtIPK2β [1]): ~0.5 µM

B1: FAM-HSE (AtHSP18.1 promoter element) (dsDNA)
DNA 1: CTCGGTCGATCGAGAAGCTTCTGCATGATG
DNA 2: AAACCATCATGCAGAAGCTTCTCGATCGAC
- binding result (AtHSFA1b [3]): binds
- binding result (MpIPMK [4]): no binding
- binding result (AtIPK2β [5]): no binding

B2: HSE∆ (dsDNA)
DNA 1: CTCGGTCGATCGATGCATGATG
DNA 2: AAACCATCATGCATCGATCGAC
- binding result (AtHSFA1b [6]): no binding

Reference: publication PMC12445474, “Conservation of heat stress acclimation by the IPK2-type kinases that control the synthesis of the inositol pyrophosphate 4/6-InsP7 in land plants” (PLOS Genetics, 2025)
